Conditions: topical or ocular, 5 microgram per mL
Protocol: In Vitro Liver Microsomal Stability Assay
Liver microsomal stability assays are conducted at 1 mg per mL liver microsome protein with an NADPH-generating system in 2% NaHCO3 (2.2 mM NADPH, 25.6 mM glucose 6-phosphate, 6 units per mL glucose 6-phosphate dehydrogenase and 3.3 mM MgCl2). Test compounds are prepared as solutions in 20% acetonitrile-water, and added to the assay mixture (final assay concentration 5 microgram per mL) and incubated at 37° C. Final concentration of acetonitrile in the assay should be <1%. Aliquots (50 μL) are taken out at times 0, 15, 30, 45, and 60 min, and diluted with ice cold acetonitrile (200 μL) to stop the reactions. Samples are centrifuged at 12,000 RPM for 10 min to precipitate proteins. Supernatants are transferred to microcentrifuge tubes and stored for LC/MS/MS analysis of the degradation half-life of the test compounds.

increase in the degradation half-life as compared to non-isotopically enriched metoprolol	Compound
10-30%	[2H]C([2H])(Cc1ccc(OCC(O)CNC(C)C)cc1)OC (stereo not shown) [d2-metoprolol, d2-1-Isopropylamino-3-[4-(2-methoxy-ethyl)-phenoxy]-propan-2-ol]
10-30%	[2H]C([2H])([2H])OCCc1ccc(OCC(O)CNC(C)C)cc1 (stereo not shown) [d3-metoprolol, d3-1-Isopropylamino-3-[4-(2-methoxy-ethyl)-phenoxy]-propan-2-ol]
10-30%	[2H]C([2H])([2H])OC([2H])([2H])Cc1ccc(OCC(O)CNC(C)C)cc1 (stereo not shown) [d5-metoprolol, d5-1-Isopropylamino-3-[4-(2-methoxy-ethyl)-phenoxy]-propan-2-ol]
10-30%	[2H]C([2H])([2H])OC([2H])([2H])Cc1ccc(OC([2H])([2H])C([2H])(O)C([2H])([2H])NC(C([2H])([2H])[2H])C([2H])([2H])[2H])cc1 (stereo not shown) [d16-metoprolol, d16-1-Isopropylamino-3-[4-(2-methoxy-ethyl)-phenoxy]-propan-2-ol]
